Laboratory results as given in patent publication US8354403B2, “Pyrrolidine derived beta 3 adrenergic receptor agonists” (Merck Sharp & Dohme Corp., priority 2009, dated 2013).

Target: T1, human β3 adrenergic receptor (Homo sapiens, UniProt P13945)
T1 construct: expressed in transfected cells; host or cells: Chinese hamster ovary (CHO) cells, stably transfected
Test: Beta-3 agonist in vitro functional assay: cAMP production (LANCE TR-FRET) in CHO cells stably transfected with the cloned β3 receptor
Format: cell-based
Details: Table 8; Beta-3 agonist in vitro functional assay; read-out: Human β3 agonist functional activity
Method in brief: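 CHO cells stably expressing the cloned receptor, in HEPES-buffered HBSS with BSA and 0.6 mM IBMX, 6,000 cells/well, exposed to compound for 30 min at RT. cAMP read by LANCE TR-FRET against a cAMP standard curve. Isoproterenol defines maximal stimulation.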

T1 sequence (P13945 whole entry): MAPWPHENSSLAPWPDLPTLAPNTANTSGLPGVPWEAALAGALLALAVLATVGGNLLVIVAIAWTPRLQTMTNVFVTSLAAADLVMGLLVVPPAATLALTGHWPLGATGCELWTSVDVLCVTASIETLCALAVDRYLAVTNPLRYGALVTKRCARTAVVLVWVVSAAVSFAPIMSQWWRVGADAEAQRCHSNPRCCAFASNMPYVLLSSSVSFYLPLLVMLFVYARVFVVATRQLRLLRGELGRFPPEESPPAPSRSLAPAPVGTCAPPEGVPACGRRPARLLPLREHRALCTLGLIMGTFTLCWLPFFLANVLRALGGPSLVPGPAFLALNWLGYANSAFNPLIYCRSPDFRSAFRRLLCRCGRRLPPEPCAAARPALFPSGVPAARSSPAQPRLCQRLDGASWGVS

**Q.** Which EC50 does the source give for `CN1CCCC2(CCN(C(=O)c3ccc(C[C@@H]4CC[C@H]([C@H](O)c5ccccc5)N4)cc3)CC2)C1=O` [Example 257] here?
**A.** Its EC50 is 100 to 999 nM.

**Q.** `O=C(c1ccc(C[C@@H]2CC[C@H]([C@H](O)c3ccccc3)N2)cc1)N1CCC2(CC1)NCNC2=O` [Example 258] was tested. Which EC50 did it give?
**A.** The EC50 was 10 to 99.9 nM.

**Q.** How did the EC50 turn out when `O=C(c1ccc(C[C@@H]2CC[C@H]([C@H](O)c3cccnc3)N2)cc1)N1CCC2(CC1)C(=O)NCN2c1ccccc1` [Example 259] was run?
**A.** Its EC50 is 1 to 9.9 nM.

**Q.** For `O=C(c1ccc(C[C@@H]2CC[C@H]([C@H](O)c3ccccc3)N2)cc1)N1CCC2(CC1)C(=O)NCN2c1ccccc1` [Example 260], which EC50 is on record?
**A.** Its EC50 is < 1 nM.

**Q.** With `O=C(c1ccc(C[C@@H]2CC[C@H]([C@H](O)c3ccccc3)N2)cc1)N1CCC2(CC1)C(=O)NCC2c1ccccc1` (stereo partly shown) [Example 261] as the molecule, how does the EC50 read?
**A.** Its EC50 is < 1 nM.

**Q.** With `CN1CC(c2ccc(F)cc2)C2(CCN(C(=O)c3ccc(C[C@@H]4CC[C@H]([C@H](O)c5ccccc5)N4)cc3)CC2)C1=O` (stereo partly shown) [Example 262] as the molecule, how does the EC50 read?
**A.** The EC50 was < 1 nM.

**Q.** Which EC50 does the source give for `O=C(c1ccc(C[C@@H]2CC[C@H]([C@H](O)c3ccccc3)N2)cc1)N1CCC2(CC1)C(=O)NCC2c1ccc(C(F)(F)F)cc1` (stereo partly shown) [Example 263] here?
**A.** Its EC50 is < 1 nM.

**Q.** `O=C(c1ccc(C[C@@H]2CC[C@H]([C@H](O)c3ccccc3)N2)cc1)N1CCC2(CC1)C(=O)NCC2c1cccc(C(F)(F)F)c1` (stereo partly shown) [Example 264] was tested. Which EC50 did it give?
**A.** The EC50 was < 1 nM.

**Q.** Which EC50 does the source give for `O=C(c1ccc(C[C@@H]2CC[C@H]([C@H](O)c3ccccc3)N2)cc1)N1CCC2(CC1)C(=O)NCC2c1ccccc1C(F)(F)F` (stereo partly shown) [Example 265] here?
**A.** The EC50 was 1 to 9.9 nM.

**Q.** How did the EC50 turn out when `O=C(c1ccc(C[C@@H]2CC[C@H]([C@H](O)c3ccccc3)N2)cc1)N1CCC2(CC1)C(=O)NCC2c1ccccn1` (stereo partly shown) [Example 266] was run?
**A.** Its EC50 is 1 to 9.9 nM.

**Q.** How did the EC50 turn out when `O=C1NC(=O)C2(CCN(C(=O)c3ccc(C[C@@H]4CC[C@H]([C@H](O)c5ccccc5)N4)cc3)CC2)N1` [Example 267] was run?
**A.** The EC50 was 10 to 99.9 nM.

**Q.** How did the EC50 turn out when `O=C1NC(=O)C2(CCN(C(=O)c3ccc(C[C@@H]4CC[C@H]([C@H](O)c5cccnc5)N4)cc3)CC2)N1` [Example 268] was run?
**A.** Its EC50 is 10 to 99.9 nM.

**Q.** `O=C(c1ccc(C[C@@H]2CC[C@H]([C@H](O)c3ccccc3)N2)cc1)N1CCC2(CC1)NC(=O)N(Cc1ccccc1)C2=O` [Example 269] was tested. Which EC50 did it give?
**A.** Its EC50 is 10 to 99.9 nM.

**Q.** With `O=C(c1ccc(C[C@@H]2CC[C@H]([C@H](O)c3cccnc3)N2)cc1)N1CCC2(CC1)NC(=O)N(Cc1ccccc1)C2=O` [Example 270] as the molecule, how does the EC50 read?
**A.** Its EC50 is 10 to 99.9 nM.

**Q.** How did the EC50 turn out when `O=C1NC2(CCN(C(=O)c3ccc(C[C@@H]4CC[C@H]([C@H](O)c5ccccc5)N4)cc3)CC2)CO1` [Example 271] was run?
**A.** The EC50 was 100 to 999 nM.

**Q.** `O=C1NCC2(CCN(C(=O)c3ccc(C[C@@H]4CC[C@H]([C@H](O)c5ccccc5)N4)cc3)CC2)O1` [Example 272] was tested. Which EC50 did it give?
**A.** Its EC50 is 100 to 999 nM.

**Q.** `O=C1CCC2(CCN(C(=O)c3ccc(C[C@@H]4CC[C@H]([C@H](O)c5ccccc5)N4)cc3)CC2)O1` [Example 273] was tested. Which EC50 did it give?
**A.** Its EC50 is 10 to 99.9 nM.

**Q.** How did the EC50 turn out when `CC1CC2(CCN(C(=O)c3ccc(C[C@@H]4CC[C@H]([C@H](O)c5ccccc5)N4)cc3)CC2)OC1=O` (stereo partly shown) [Example 274] was run?
**A.** The EC50 was 10 to 99.9 nM.

**Q.** Which EC50 does the source give for `O=C1OC2(CCN(C(=O)c3ccc(C[C@@H]4CC[C@H]([C@H](O)c5ccccc5)N4)cc3)CC2)CC1Cc1ccc(F)cc1` (stereo partly shown) [Example 276] here?
**A.** The EC50 was 1 to 9.9 nM.

**Q.** Which EC50 does the source give for `O=C1OC2(CCN(C(=O)c3ccc(C[C@@H]4CC[C@H]([C@H](O)c5cccnc5)N4)cc3)CC2)CC1Cc1ccc(F)cc1` (stereo partly shown) [Example 277] here?
**A.** Its EC50 is 1 to 9.9 nM.

**Q.** For `CC1(Cc2ccc(F)cc2)CC2(CCN(C(=O)c3ccc(C[C@@H]4CC[C@H]([C@H](O)c5ccccc5)N4)cc3)CC2)OC1=O` (stereo partly shown) [Example 278], which EC50 is on record?
**A.** Its EC50 is < 1 nM.

**Q.** Which EC50 does the source give for `CC1(C)CC2(CCN(C(=O)c3ccc(C[C@@H]4CC[C@H]([C@H](O)c5ccccc5)N4)cc3)CC2)OC1=O` [Example 279] here?
**A.** The EC50 was 10 to 99.9 nM.

**Q.** How did the EC50 turn out when `O=C1CC(c2ccccc2)C2(CCN(C(=O)c3ccc(C[C@@H]4CC[C@H]([C@H](O)c5ccccc5)N4)cc3)CC2)O1` (stereo partly shown) [Example 280] was run?
**A.** The EC50 was 1 to 9.9 nM.

**Q.** Which EC50 does the source give for `O=C1C=C(c2ccccc2)C2(CCN(C(=O)c3ccc(C[C@@H]4CC[C@H]([C@H](O)c5ccccc5)N4)cc3)CC2)O1` [Example 281] here?
**A.** The EC50 was 1 to 9.9 nM.

**Q.** For `O=C(c1ccc(C[C@@H]2CC[C@H]([C@H](O)c3ccccc3)N2)cc1)N1CCC2(CCCC2n2cccn2)CC1` (stereo partly shown) [Example 282], which EC50 is on record?
**A.** The EC50 was 100 to 999 nM.

**Q.** With `O=C1OC2(CCN(C(=O)c3ccc(C[C@@H]4CC[C@H]([C@H](O)c5ccccc5)N4)cc3)CC2)c2ccccc21` [Example 283] as the molecule, how does the EC50 read?
**A.** The EC50 was 10 to 99.9 nM.

**Q.** How did the EC50 turn out when `O=C1OC2(CCN(C(=O)c3ccc(C[C@@H]4CC[C@H]([C@H](O)c5cccnc5)N4)cc3)CC2)c2ccccc21` [Example 284] was run?
**A.** Its EC50 is 1 to 9.9 nM.

**Q.** For `O=C1OC2(CCN(C(=O)c3ccc(C[C@@H]4CC[C@H]([C@H](O)c5ccccc5)N4)cc3)CC2)c2ccncc21` [Example 285], which EC50 is on record?
**A.** The EC50 was 10 to 99.9 nM.

**Q.** With `O=C1OC2(CCN(C(=O)c3ccc(C[C@@H]4CC[C@H]([C@H](O)c5ccccc5)N4)cc3)CC2)c2cccnc21` [Example 286] as the molecule, how does the EC50 read?
**A.** The EC50 was 10 to 99.9 nM.

**Q.** Which EC50 does the source give for `O=C1OC2(CCN(C(=O)c3ccc(C[C@@H]4CC[C@H]([C@H](O)c5ccccc5)N4)cc3)CC2)c2ncccc21` [Example 287] here?
**A.** The EC50 was 10 to 99.9 nM.

**Q.** How did the EC50 turn out when `COc1ccc2c(n1)C1(CCN(C(=O)c3ccc(C[C@@H]4CC[C@H]([C@H](O)c5ccccc5)N4)cc3)CC1)OC2=O` [Example 288] was run?
**A.** The EC50 was 10 to 99.9 nM.

**Q.** With `O=C1OC2(CCN(C(=O)c3ccc(C[C@@H]4CC[C@H]([C@H](O)c5ccccc5)N4)cc3)CC2)c2scnc21` [Example 289] as the molecule, how does the EC50 read?
**A.** The EC50 was 10 to 99.9 nM.

**Q.** With `O=C(c1ccc(C[C@@H]2CC[C@H]([C@H](O)c3ccccc3)N2)cc1)N1CCC2(CC1)C(=O)Oc1ccccc12` [Example 290] as the molecule, how does the EC50 read?
**A.** The EC50 was 10 to 99.9 nM.

**Q.** `O=C(c1ccc(C[C@@H]2CC[C@H]([C@H](O)c3cccnc3)N2)cc1)N1CCC2(CCOC2=O)CC1` [Example 292] was tested. Which EC50 did it give?
**A.** The EC50 was 10 to 99.9 nM.

**Q.** Which EC50 does the source give for `CC1(C)CC2(CCN(C(=O)c3ccc(C[C@@H]4CC[C@H]([C@H](O)c5ccccc5)N4)cc3)CC2)C(=O)O1` [Example 293] here?
**A.** Its EC50 is 1 to 9.9 nM.

**Q.** Which EC50 does the source give for `CC1(C)CC2(CCN(C(=O)c3ccc(C[C@@H]4CC[C@H]([C@H](O)c5cccnc5)N4)cc3)CC2)C(=O)O1` [Example 294] here?
**A.** Its EC50 is 1 to 9.9 nM.

**Q.** `CC1(C)CC2(CCN(C(=O)c3ccc(C[C@@H]4CC[C@H]([C@H](O)c5ccc[n+]([O-])c5)N4)cc3)CC2)C(=O)O1` [Example 295] was tested. Which EC50 did it give?
**A.** Its EC50 is 100 to 999 nM.

**Q.** Which EC50 does the source give for `CC1COC(=O)C12CCN(C(=O)c1ccc(C[C@@H]3CC[C@H]([C@H](O)c4ccccc4)N3)cc1)CC2` (stereo partly shown) [Example 296] here?
**A.** Its EC50 is 1 to 9.9 nM.

**Q.** Which EC50 does the source give for `CC1OC(=O)C2(CCN(C(=O)c3ccc(C[C@@H]4CC[C@H]([C@H](O)c5ccccc5)N4)cc3)CC2)C1C` (stereo partly shown) [Example 297] here?
**A.** The EC50 was 1 to 9.9 nM.

**Q.** With `CC1(C)COC(=O)C12CCN(C(=O)c1ccc(C[C@@H]3CC[C@H]([C@H](O)c4ccccc4)N3)cc1)CC2` [Example 298] as the molecule, how does the EC50 read?
**A.** The EC50 was 1 to 9.9 nM.

**Q.** `O=C(c1ccc(C[C@@H]2CC[C@H]([C@H](O)c3ccccc3)N2)cc1)N1CCC2(CC1)C(=O)Nc1ccccc12` [Example 299] was tested. Which EC50 did it give?
**A.** Its EC50 is 10 to 99.9 nM.

**Q.** With `Cc1ccc2c(c1)NC(=O)C21CCN(C(=O)c2ccc(C[C@@H]3CC[C@H]([C@H](O)c4ccccc4)N3)cc2)CC1` [Example 300] as the molecule, how does the EC50 read?
**A.** Its EC50 is 10 to 99.9 nM.

**Q.** `O=C(c1ccc(C[C@@H]2CC[C@H]([C@H](O)c3cccnc3)N2)cc1)N1CCC2(CC1)SCc1ccccc12` [Example 301] was tested. Which EC50 did it give?
**A.** The EC50 was 100 to 999 nM.

**Q.** For `O=C(c1ccc(C[C@@H]2CC[C@H]([C@H](O)c3ccccc3)N2)cc1)N1CCC2(CC1)c1ccccc1CS2(=O)=O` [Example 302], which EC50 is on record?
**A.** The EC50 was 10 to 99.9 nM.

**Q.** `O=C(c1ccc(C[C@@H]2CC[C@H]([C@H](O)c3ccccc3)N2)cc1)N1CCC2(CC1)OCCS2(=O)=O` [Example 303] was tested. Which EC50 did it give?
**A.** The EC50 was 10 to 99.9 nM.

**Q.** `O=C(c1ccc(C[C@@H]2CC[C@H]([C@H](O)c3ccccc3)N2)cc1)N1CCC2(CC1)OCC[S+]2[O-]` (stereo partly shown) [Example 304] was tested. Which EC50 did it give?
**A.** Its EC50 is 100 to 999 nM.
